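At the GI50, growth is halved. TGI marks complete inhibition of growth.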
Tests used:
Test in all cases: growth of human tumour cells (NCI), 384-well format
786-0 renal = system: 786-0 renal
A498 renal = system: A498 renal
A549 NSCLC = system: A549 NSCLC
ACHN renal = system: ACHN renal
BT-549 breast = system: BT-549 breast
CAKI-1 renal = system: CAKI-1 renal
CCRF-CEM leukemia = system: CCRF-CEM leukemia
COLO 205 colon = system: COLO 205 colon
DU-145 prostate = system: DU-145 prostate
EKVX NSCLC = system: EKVX NSCLC
HCC-2998 colon = system: HCC-2998 colon
HCT-15 colon = system: HCT-15 colon
HL-60(TB) leukemia = system: HL-60(TB) leukemia
HOP-92 NSCLC = system: HOP-92 NSCLC
HS 578T breast = system: HS 578T breast
HT29 colon = system: HT29 colon
IGROV1 ovarian = system: IGROV1 ovarian
K-562 leukemia = system: K-562 leukemia
KM12 colon = system: KM12 colon
LOX IMVI melanoma = system: LOX IMVI melanoma
M14 melanoma = system: M14 melanoma
MALME-3M melanoma = system: MALME-3M melanoma
MCF7 breast = system: MCF7 breast
MDA-MB-231 breast = system: MDA-MB-231 breast
MDA-MB-435 melanoma = system: MDA-MB-435 melanoma
MDA-MB-468 breast = system: MDA-MB-468 breast
MOLT-4 leukemia = system: MOLT-4 leukemia
NCI-H226 lung = system: NCI-H226 lung
NCI-H23 lung = system: NCI-H23 lung
NCI-H322M lung = system: NCI-H322M lung
NCI-H460 NSCLC = system: NCI-H460 NSCLC
NCI-H522 lung = system: NCI-H522 lung
NCI/ADR-RES ovarian = system: NCI/ADR-RES ovarian
OVCAR-3 ovarian = system: OVCAR-3 ovarian
OVCAR-4 ovarian = system: OVCAR-4 ovarian
OVCAR-5 ovarian = system: OVCAR-5 ovarian
OVCAR-8 ovarian = system: OVCAR-8 ovarian
PC-3 prostate = system: PC-3 prostate
RPMI-8226 leukemia = system: RPMI-8226 leukemia
RXF 393 renal = system: RXF 393 renal
SF-268 CNS = system: SF-268 CNS
SF-295 CNS = system: SF-295 CNS
SF-539 CNS = system: SF-539 CNS
SK-MEL-28 melanoma = system: SK-MEL-28 melanoma
SK-MEL-5 melanoma = system: SK-MEL-5 melanoma
SK-OV-3 ovarian = system: SK-OV-3 ovarian
SN12C renal = system: SN12C renal
SNB-19 CNS = system: SNB-19 CNS
SNB-75 CNS = system: SNB-75 CNS
SR leukemia = system: SR leukemia
SW-620 colon = system: SW-620 colon
T-47D breast = system: T-47D breast
TK-10 renal = system: TK-10 renal
UACC-257 melanoma = system: UACC-257 melanoma
UACC-62 melanoma = system: UACC-62 melanoma
UO-31 renal = system: UO-31 renal

Work on COCc1cc(C(=O)Nc2cc([C@H]3CC[C@@H](OC(=O)NC(C)C)C3)[nH]n2)n(C)n1 yielded a GI50 ([…]-0 renal) of 5.05 µM, a TGI (786-0 renal) of 64.2 µM and a GI50 (A498 renal) of 1.52 µM. The TGI (A498 renal) was > 100 µM, the GI50 (A549 NSCLC) was 3.03 µM and the TGI (A549 NSCLC) was > 100 µM. The GI50 (ACHN renal) was 3.45 µM, the TGI (ACHN renal) was > 100 µM and the GI50 (BT-549 breast) was 3.38 µM. For the same compound, the TGI (BT-549 breast) was 20.3 µM, the GI50 (CAKI-1 renal) was 3.99 µM and the TGI (CAKI-1 renal) was > 100 µM. The GI50 (CCRF-CEM leukemia) was 2.81 µM, the TGI (CCRF-CEM leukemia) was 7.24 µM and the GI50 (COLO 205 colon) was 0.975 µM. For the same compound, the TGI (COLO 205 colon) was 19 µM, the GI50 (DU-145 prostate) was 3.14 µM and the TGI (DU-145 prostate) was > 100 µM. The GI50 (EKVX NSCLC) was 14.9 µM, the TGI (EKVX NSCLC) was 48.8 µM and the GI50 (HCC-2998 colon) was 5.15 µM. The TGI (HCC-2998 colon) was 25.9 µM, the GI50 (HCT-15 colon) was 6.45 µM and the TGI (HCT-15 colon) was 37.4 µM. It also gave a GI50 (HL-60(TB) leukemia) of 1.52 µM, a TGI (HL-60(TB) leukemia) of 2.89 µM and a GI50 (HOP-92 NSCLC) of 14 µM. For the same compound, the TGI (HOP-92 NSCLC) was > 100 µM, the GI50 (HS 578T breast) was 11.4 µM and the TGI (HS 578T breast) was 29.5 µM. The GI50 (HT29 colon) was 12.4 µM, the TGI (HT29 colon) was > 100 µM and the GI50 (IGROV1 ovarian) was 4.47 µM. The TGI (IGROV1 ovarian) was > 100 µM, the GI50 (K-562 leukemia) was 13.8 µM and the TGI (K-562 leukemia) was 65.2 µM. For the same compound, the GI50 (KM12 colon) was 0.571 µM, the TGI (KM12 colon) was 17.2 µM and the GI50 (LOX IMVI melanoma) was 3.12 µM. It also gave a TGI (LOX IMVI melanoma) of 18.9 µM, a GI50 (M14 melanoma) of 4.82 µM and a TGI (M14 melanoma) of 18.8 µM. The GI50 (MALME-3M melanoma) was 12.3 µM, the TGI (MALME-3M melanoma) was 26.1 µM and the GI50 (MCF7 breast) was 2.66 µM. The TGI (MCF7 breast) was 13.4 µM, the GI50 (MDA-MB-231 breast) was 9.08 µM and the TGI (MDA-MB-231 breast) was > 100 µM. The GI50 (MDA-MB-435 melanoma) was 12.5 µM, the TGI (MDA-MB-435 melanoma) was 84.8 µM and the GI50 (MDA-MB-468 breast) was 13.9 µM. For the same compound, the TGI (MDA-MB-468 breast) was 27 µM, the GI50 (MOLT-4 leukemia) was 4.36 µM and the TGI (MOLT-4 leukemia) was 12.5 µM. The GI50 (NCI-H226 lung) was 2.85 µM, the TGI (NCI-H226 lung) was 51.6 µM and the GI50 (NCI-H23 lung) was 2.48 µM. It also gave a TGI (NCI-H23 lung) of 10.1 µM, a GI50 (NCI-H322M lung) of 3.8 µM and a TGI (NCI-H322M lung) of 13 µM. For the same compound, the GI50 (NCI-H460 NSCLC) was 3.07 µM, the TGI (NCI-H460 NSCLC) was 14.3 µM and the GI50 (NCI-H522 lung) was 15.1 µM. The TGI (NCI-H522 lung) was 31.6 µM, the GI50 (NCI/ADR-RES ovarian) was > 100 µM and the TGI (NCI/ADR-RES ovarian) was > 100 µM. The GI50 (OVCAR-3 ovarian) was 5.24 µM, the TGI (OVCAR-3 ovarian) was 28.8 µM and the GI50 (OVCAR-4 ovarian) was 18.3 µM. For the same compound, the TGI (OVCAR-4 ovarian) was 52.7 µM, the GI50 (OVCAR-5 ovarian) was 3.12 µM and the TGI (OVCAR-5 ovarian) was 9.17 µM. It also gave a GI50 (OVCAR-8 ovarian) of 4.64 µM, a TGI (OVCAR-8 ovarian) of 36.2 µM and a GI50 (PC-3 prostate) of 6.59 µM. For the same compound, the TGI (PC-3 prostate) was > 100 µM, the GI50 (RPMI-8226 leukemia) was 1.84 µM and the TGI (RPMI-8226 leukemia) was 6.78 µM. The GI50 (RXF 393 renal) was 5.42 µM, the TGI (RXF 393 renal) was 23.4 µM and the GI50 (SF-268 CNS) was 2.37 µM. It also gave a TGI (SF-268 CNS) of 15.4 µM, a GI50 (SF-295 CNS) of 10.3 µM and a TGI (SF-295 CNS) of 79.3 µM. For the same compound, the GI50 (SF-539 CNS) was 3.97 µM, the TGI (SF-539 CNS) was 19.6 µM and the GI50 (SK-MEL-28 melanoma) was 10.3 µM. It also gave a TGI (SK-MEL-28 melanoma) of 22.8 µM, a GI50 (SK-MEL-5 melanoma) of 0.762 µM and a TGI (SK-MEL-5 melanoma) of 13.9 µM. It also gave a GI50 (SK-OV-3 ovarian) of 8.29 µM, a TGI (SK-OV-3 ovarian) of 90.1 µM and a GI50 (SN12C renal) of 4.38 µM. The TGI (SN12C renal) was 23.9 µM, the GI50 (SNB-19 CNS) was 5.67 µM and the TGI (SNB-19 CNS) was > 100 µM. It also gave a GI50 (SNB-75 CNS) of 8.98 µM, a TGI (SNB-75 CNS) of 22.3 µM and a GI50 (SR leukemia) of 0.557 µM. It also gave a TGI (SR leukemia) of 1.86 µM, a GI50 (SW-620 colon) of 2.45 µM and a TGI (SW-620 colon) of 65.4 µM. The GI50 (T-47D breast) was 5.58 µM, the TGI (T-47D breast) was > 100 µM and the GI50 (TK-10 renal) was 14.8 µM. The TGI (TK-10 renal) was > 100 µM, the GI50 (UACC-257 melanoma) was 6.8 µM and the TGI (UACC-257 melanoma) was 25.3 µM. For the same compound, the GI50 (UACC-62 melanoma) was 2.98 µM, the TGI (UACC-62 melanoma) was 12.8 µM and the GI50 (UO-31 renal) was 31.5 µM. For the same compound, the TGI (UO-31 renal) was > 100 µM.
